This passage reports EC50 results from patent publication US10934282B2, “Heteroaromatic modulators of the retinoid-related orphan receptor gamma” (LEO PHARMA A/S, priority 2016, dated 2021).

Assay [1] has as its system IL-17A levels in human peripheral blood. The assay can be described thus: tissue or blood. It counts as cell-based. To be noted: 72 h, read-out: Human Whole blood IL-17A (nM).
For assay [2], the target named is T1, human RORgt nuclear receptor (RORgT ligand binding domain protein) (Homo sapiens, UniProt P51449).
T1 construct: purchased Proteros Biostructures GmbH
T1 sequence (P51449 with tags, fused parts or gaps): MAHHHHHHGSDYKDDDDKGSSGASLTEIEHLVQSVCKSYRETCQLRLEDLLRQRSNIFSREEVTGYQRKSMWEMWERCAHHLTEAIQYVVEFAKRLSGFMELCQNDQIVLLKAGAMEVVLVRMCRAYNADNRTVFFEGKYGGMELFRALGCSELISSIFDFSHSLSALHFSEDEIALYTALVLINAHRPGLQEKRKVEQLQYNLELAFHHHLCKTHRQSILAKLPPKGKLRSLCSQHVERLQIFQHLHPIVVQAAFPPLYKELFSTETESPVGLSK
Description: ROR-gamma binding assay (Scintillation Proximity Assay, displacement of [3H]-25-hydroxycholesterol). The conditions noted are these: EC50, SPA, 15 nM [3H]-25-Hydroxycholesterol, RORgT LBD 12 nM. Put shortly: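 SPA competition of compound against 15 nM [3H]-25-hydroxycholesterol for His/FLAG-tagged human RORγt LBD (12 nM) on His-tag PVT beads, in 50 mM HEPES pH 7.4, 150 mM NaCl, 5 mM MgCl2, 0.1% BSA, 0.5% DMSO. 30 min preincubation, then ≥4 h at room temperature in darkness; EC50 by four-parameter fit.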
For orientation: SPA uses beads or plates that emit light when radiolabelled molecules are held near them.

Assay [3] has as its system IL-17A in Human peripheral mononuclear cells. Description: Human PBMC IL-17A assay. It is filed as cell-based. The conditions noted are these: 72 h, EC50, antiCD3/antiCD28-coated beads, 3 days, alpha-LISA. The method, boiled down: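 Cryopreserved human PBMC (130,000/well) stimulated with anti-CD3/anti-CD28-coated beads (1 cell per bead) in RPMI-1640 with 10% bovine calf serum, compounds at 0.1% DMSO, for 3 days. Supernatant IL-17A measured by AlphaLISA, viability by PrestoBlue; EC50 from 4-parameter non-linear regression.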

For the compound `Cc1c(CN2CCN(C(=O)OC(C)C)[C@@H](C)C2)cc(Cl)cc1Nc1nnc(C(O)C(F)(F)F)o1` (stereo partly drawn) [Example 47, isopropyl (2S)-4-[[5-chloro-2-methyl-3-[[5-(2,2,2-trifluoro-1-hydroxy-ethyl)-1,3,4-oxadiazol-2-yl]amino]phenyl]methyl]-2-methyl-piperazine-1-carboxylate], the EC50 in assay [1] came out at 307 nM; in assay [2], 26.6 nM; in assay [3], 63.2 nM.

Consider `Cc1cc(CN2CCN(C(=O)OC(C)C)[C@@H](C)C2)c(C)c(Nc2nnc([C@@H](O)CO)o2)c1` [Example 72, isopropyl (2S)-4-[[3-[[5-[(1S)-1,2-dihydroxyethyl]-1,3,4-oxadiazol-2-yl]amino]-2,5-dimethyl-phenyl]methyl]-2-methyl-piperazine-1-carboxylate], for which the EC50 was 258 nM in assay [1], 81.6 nM in assay [2] and 262 nM in assay [3].

As to `CCOC(=O)N1CCN(Cc2cc(C)cc(Nc3nnc([C@@H](C)O)o3)c2C)C[C@@H]1C` [Example 71, ethyl (2S)-4-[[3-[[5-[(1R)-1-hydroxyethyl]-1,3,4-oxadiazol-2-yl]amino]-2,5-dimethyl-phenyl]methyl]-2-methyl-piperazine-1-carboxylate], the EC50 was 307 nM in assay [1], 62 nM in assay [2] and 223 nM in assay [3].

For `Cc1cc(CN2CCN(C(=O)OC(C)C)[C@@H](C)C2)c(C)c(Nc2nnc(-c3ccnn3C)o2)c1` [Example 59, isopropyl (2S)-4-[[2,5-dimethyl-3-[[5-(2-methylpyrazol-3-yl)-1,3,4-oxadiazol-2-yl]amino]phenyl]methyl]-2-methyl-piperazine-1-carboxylate], the EC50 stood at 211 nM in assay [1], 25.7 nM in assay [2] and 123 nM in assay [3].

Turning to `Cc1cc(CN2CCN(C(=O)OC(C)C)[C@@H](C)C2)c(C)c(Nc2nnc(C)o2)c1` [Example 35, isopropyl (2S)-4-[[2,5-dimethyl-3-[(5-methyl-1,3,4-oxadiazol-2-yl)amino]phenyl]methyl]-2-methyl-piperazine-1-carboxylate], the EC50 in assay [1] is 499 nM; in assay [2], 33.9 nM; in assay [3], 106 nM.

`Cc1cc(CN2CCN(C(=O)C3CC3)[C@@H](C)C2)c(C)c(Nc2nnc([C@@H](C)O)o2)c1` [Example 22, cyclopropyl-[(2S)-4-[[3-[[5-[(1R)-1-hydroxyethyl]-1,3,4-oxadiazol-2-yl]amino]-2,5-dimethyl-phenyl]methyl]-2-methyl-piperazin-1-yl]methanone]: the EC50 in assay [1] worked out at 355 nM; in assay [2], 169 nM; in assay [3] it was 254 nM.

`Cc1c(CN2CCN(C(=O)OC(C)C)[C@@H](C)C2)cc(Cl)cc1Nc1nnc(C2(O)CC2)o1` [Example 45, isopropyl (2S)-4-[[5-chloro-3-[[5-(1-hydroxycyclopropyl)-1,3,4-oxadiazol-2-yl]amino]-2-methyl-phenyl]methyl]-2-methyl-piperazine-1-carboxylate]: the EC50 in assay [1] was determined as 330 nM; in assay [2], 42 nM; in assay [3] it was 39.9 nM.

Regarding `Cc1cc(CN2CCN(C(=O)C3CCC(F)(F)C3)[C@@H](C)C2)c(C)c(Nc2nnc([C@H]3NCC[C@H]3O)o2)c1` (stereo partly drawn) [Example 79, (3,3-difluorocyclopentyl)-[(2S)-4-[[3-[[5-[(2S,3R)-3-hydroxypyrrolidin-2-yl]-1,3,4-oxadiazol-2-yl]amino]-2,5-dimethyl-phenyl]methyl]-2-methyl-piperazin-1-yl]methanone], the EC50 stood at 3530 nM in assay [1], 274 nM in assay [2] and 1220 nM in assay [3].

For the compound `COCc1nnc(Nc2cc(Cl)cc(CN3CCN(C(=O)c4ccccc4)[C@@H](C)C3)c2C)o1` [Example 2, [(2S)-4-[[5-chloro-3-[[5-(methoxymethyl)-1,3,4-oxadiazol-2-yl]amino]-2-methyl-phenyl]methyl]-2-methyl-piperazin-1-yl]-phenyl-methanone], the EC50 came to 454 nM in assay [1], 29 nM in assay [2] and 137 nM in assay [3].

For the compound `Cc1c(CN2CCN(C(=O)OC(C)C)[C@@H](C)C2)cc(Cl)cc1Nc1nnc([C@@H]2CC(=O)N2)o1` [Example 53, isopropyl (2S)-4-[[5-chloro-2-methyl-3-[[5-[(2S)-4-oxoazetidin-2-yl]-1,3,4-oxadiazol-2-yl]amino]phenyl]methyl]-2-methyl-piperazine-1-carboxylate], the values for the EC50 in assay [1], in assay [2] and in assay [3] were 247 nM, 68.2 nM and 93.9 nM, respectively.

Regarding `Cc1cc(CN2CCN(C(=O)OC(C)C)[C@@H](C)C2)c(C)c(Nc2nnc(C[C@@H](C)O)o2)c1` [Example 61, isopropyl (2S)-4-[[3-[[5-[(2R)-2-hydroxypropyl]-1,3,4-oxadiazol-2-yl]amino]-2,5-dimethyl-phenyl]methyl]-2-methyl-piperazine-1-carboxylate], the EC50 in assay [1] stood at 101 nM; in assay [2], 42.3 nM; in assay [3], 106 nM.

With `Cc1c(CN2CCN(C(=O)OC(C)C)[C@@H](C)C2)cc(Cl)cc1Nc1nnc([C@H]2C[C@H](O)C2)o1` [Example 64, isopropyl (2S)-4-[[5-chloro-3-[[5-(3-hydroxycyclobutyl)-1,3,4-oxadiazol-2-yl]amino]-2-methyl-phenyl]methyl]-2-methyl-piperazine-1-carboxylate], the EC50 is 191 nM in assay [1], 50.6 nM in assay [2] and 131 nM in assay [3].

With `Cc1c(CN2CCN(C(=O)OC(C)C)[C@@H](C)C2)cc(Cl)cc1Nc1nnc(C2CCNC2=O)o1` (stereo partly drawn) [Example 48, isopropyl (2S)-4-[[5-chloro-2-methyl-3-[[5-(2-oxopyrrolidin-3-yl)-1,3,4-oxadiazol-2-yl]amino]phenyl]methyl]-2-methyl-piperazine-1-carboxylate], the EC50 was 296 nM in assay [1], 37.2 nM in assay [2] and 191 nM in assay [3].

Regarding `Cc1cc(CN2CCN(C(=O)OC(C)C)[C@@H](C)C2)c(C)c(Nc2nnc(-c3nonc3C)o2)c1` [Example 54, isopropyl (2S)-4-[[2,5-dimethyl-3-[[5-(4-methyl-1,2,5-oxadiazol-3-yl)-1,3,4-oxadiazol-2-yl]amino]phenyl]methyl]-2-methyl-piperazine-1-carboxylate], the EC50 in assay [1] turned out to be 176 nM; in assay [2] it was 16.3 nM; in assay [3], 28.1 nM.

For the compound `Cc1cc(CN2CCN(C(=O)C3CCC3)[C@@H](C)C2)c(C)c(Nc2nnc([C@H](C)O)o2)c1` [Example 20, cyclobutyl-[(2S)-4-[[3-[[5-[(1S)-1-hydroxyethyl]-1,3,4-oxadiazol-2-yl]amino]-2,5-dimethyl-phenyl]methyl]-2-methyl-piperazin-1-yl]methanone], the EC50 in assay [1] is 259 nM; in assay [2] it was 113 nM; in assay [3], 189 nM.
